The test system of data set [1] is Green Peach Aphid (Myzus persicae) (GPA) (MYZUPE). The data set is described as follows: Bioassay for Green Peach Aphid, foliar spray on infested cabbage seedlings. Format: in vivo. Particulars: 72 h, 200 ppm foliar spray on cabbage, graded after three days, Abbott-corrected % control, read-out: % Control (or Mortality) rating, GPA. On the procedure: Example A: Bioassays for Green Peach Aphid (Myzus persicae) (GPA) (MYZUPE)
Cabbage seedlings grown in 3-inch pots, with 2-3 small (3-5 cm) true leaves, were used as test substrate. The seedlings were infested with 20-50 GPA (wingless adult and nymph stages) one day prior to chemical application. Four pots with individual seedlings were used for each treatment. Test compounds (2 mg) were dissolved in 2 mL of acetonemethanol (1:1) solvent, forming stock solutions of 1000 ppm test compound. The stock solutions were diluted 5× with 0.025% Tween 20 in H2O to obtain the solution at 200 ppm test compound. A hand-held aspirator-type sprayer was used for spraying a solution to both sides of […] leaves until runoff. Reference plants (solvent check) were sprayed with the diluent only containing 20% by volume of acetonemethanol (1:1) solvent. Treated plants were held in a holding room for three days at approximately 25° C. and ambient relative humidity (RH) prior to grading. Evaluation was conducted by counting the number of live aphids per plant under a microscope. Percent control was measured by using Abbott's correction formula (W. S. Abbott, “A Method of Computing the Effectiveness of an Insecticide,” J. Econ. Entomol. 18 (1925), pp. 265-267) as follows. Corrected % Control=100*(X−Y)/X • where • X=No. of live aphids on solvent check plants and • Y=No. of live aphids on treated plants The results are indicated in the table entitled “TABLE 2. Biological Data for Green Peach Aphid (MYZUPE) and Sweetpotato Whitefly-crawler (WF) (BEMITA)” (See Table Section).

Data set [2] relates to Sweetpotato Whitefly-Crawler (Bemisia tabaci) (WF) (BEMITA). The data set is described as follows: Insecticidal test for Sweetpotato Whitefly-Crawler in foliar spray assay on cotton plants. Format: in vivo. Particulars: 216 h, 200 ppm foliar spray on cotton, graded after 9 days, Abbott-corrected % control, read-out: % Control (or Mortality) rating, WF. How it is done: Example B: Insecticidal Test for Sweetpotato Whitefly-Crawler (Bemisia tabaci) (WF) (BEMITA) in Foliar Spray Assay
Cotton plants (Gossypium hirsutum) grown in 3-inch pots, with 1 small (4-5 cm) true leaves, were used as test substrate. The plants were infested with 200-400 whitefly eggs 4-5 days prior to chemical application. Four pots with individual plants were used for each treatment. Test compounds (2 mg) were dissolved in 1 mL of acetone solvent, forming stock solutions of 2000 ppm test compound. The stock solutions were diluted 10× with 0.025% Tween 20 in H2O (diluents) to obtain the solution at 200 ppm test compound. A hand-held aspirator-type sprayer was used for spraying a solution to both sides of cotton leaves until runoff. Reference plants (solvent check) were sprayed with the diluent only containing 10% by volume of acetone solvent. Treated plants were held in a holding room for 9 days at approximately 25° C. and ambient relative humidity (RH) prior to grading. Evaluation was conducted by counting the number of live 3-4 nymph stage per plant under a microscope. Percent control was measured by using Abbott's correction formula (W. S. Abbott, “A Method of Computing the Effectiveness of an Insecticide,” J. Econ. Entomol. 18 (1925), pp. 265-267) as follows. Corrected % Control=100*(X−Y)/X • where • X=No. of live nymphs on solvent check plants and • Y=No. of live nymphs on treated plants.
Biological Data for Green Peach Aphid (MYZUPE) and Sweetpotato Whitefly-crawler (WF) (BEMITA)” (See Table Section).

The values below come from patent US9497966B2, “Pesticidal compositions and related methods” (DOW AGROSCIENCES LLC, priority 2013, dated 2016).

In general, mortality refers to the percentage killed. Usually melting point stands for the temperature, or range, at which the solid turns liquid.

`CON=C(CSCCC(F)(F)F)C(=O)N(C)c1cn(-c2cccnc2)nc1Cl` [Compound P4, N-(3-chloro-1-(pyridin-3-yl)-1H-pyrazol-4-yl)-2-(methoxyimino)-N-methyl-3-((3,3,3-trifluoropropyl)thio)propanamide]: the mortality at 200 ppm in data set [1] and in data set [2] was 80 to 100% in each case.
For the molecule `CON=C(C[S+]([O-])CCC(F)(F)F)C(=O)N(C)c1cn(-c2cccnc2)nc1Cl` (stereo not shown) [Compound P5, N-(3-chloro-1-(pyridin-3-yl)-1H-pyrazol-4-yl)-2-(methoxyimino)-N-methyl-3-((3,3,3-trifluoropropyl)sulfinyl)propanamide], the mortality at 200 ppm in data set [1] and in data set [2] was 80 to 100% throughout.
Consider `CON=C(CS(=O)(=O)CCC(F)(F)F)C(=O)N(C)c1cn(-c2cccnc2)nc1Cl` [Compound P47, N-(3-chloro-1-(pyridin-3-yl)-1H-pyrazol-4-yl)-2-(methoxyimino)-N-methyl-3-((3,3,3-trifluoropropyl)sulfonyl)propanamide], for which the mortality at 200 ppm in data set [1] and in data set [2] was 80 to 100% in each case.
With `CON=C(CS)C(=O)N(C)c1cn(-c2cccnc2)nc1Cl` [FA2, N-(3-chloro-1-(pyridin-3-yl)-1H-pyrazol-4-yl)-3-mercapto-2-(methoxyimino)-N-methylpropanamide], the melting point lay in the range of 116 to 121 °C.
